Read-outs that look alike come from different tables or passages of the source.
Tests used:
[1] = tested on: HIV-1 expression in PBMC cultures from HIV-1 infected donors on cART; experiment: Induced HIV-1 expression in PBMC cultures from HIV-1 infected donors on cART (Example 208); format: cell-based, human; conditions: Tables 7-11; for fold induction at 0.01 µM / fold induction at 0.156 µM / fold induction at 2.5 µM: Human immunodeficiency virus 1, PBMC; for fold induction at 0.01 µM: read-out: Fold HIV-1 Induction, Geometric Mean, 0.01 μM
Protocol: Isolated PBMCs were treated with various concentrations (0.1, 1, and 10 μM) of the TLR7 modulating compounds (compounds of Example 4 and Example 49) or dimethyl sulfoxide (DMSO) treated (vehicle control) for 4 to 5 days. The cultures were maintained in the presence of antivirals (elvitegravir and efavirenz at 100 nM each) to prevent viral spread and amplification in order to measure initial virus production (latency reversal) created by the TLR7 modulating compounds. At the end of the incubation period cell-free culture supernatants were harvested and HIV-1 RNA levels were quantified by the COBAS® AmpliPrep/COBAS® TaqMan HIV-1 Test, v2.0 (Roche).
Using the method described above in Example 208, HIV-1 expression in PBMC cultures derived from four additional HIV-1 infected donors on cART were tested in the presence of the compounds of Examples 4, 29, 120, 121, 122, 123, 124, resiquimod, and imiquimod.

[2] = tested on: polyfunctional proliferating CD8 T cells (CFSE low, IFNg+, TNFa+); experiment: Induction of HIV-specific polyfunctional CD8 T cells by combination with an IDO1 inhibitor (Example 217); format: cell-based, human
Protocol: PBMCs from 4 HIV-infected donors (Donor IDs 180-183) on suppressive cART were isolated, as described previously, stained with CFSE, and treated with 500 ng/ml 15-mer peptide pools derived from overlapping HIV gag, pol, nef, and env consensus peptides (JPT Peptide Technologies GmbH). PBMC cultures were treated with DMSO or the compound of Example 49 (GS-9620) at 0.1 uM. In some cultures treated with Example 49, the IDO1 small molecule inhibitor, INCB024360, was combined at 2 μM. Cells were incubated at 37° C. for 8 days, then split into duplicate sets and stained in DPBS with LIVE/DEAD Fixable Aqua Dead Cell Stain (Life Technologies). The immune recall response was performed as previously described. FACS was performed on a LSR Fortessa (BD Biosciences) and data analysis was done with FlowJo software (TreeStar). Data was plotted and statistical analysis was done with GraphPad Prism software (GraphPad).

[3] = read-out: Fold HIV-1 Induction, Geometric Mean, 0.156 μM, donors 152-155
[4] = read-out: Fold HIV-1 Induction, Geometric Mean, 2.5 μM, donors 152-155

## COCCOc1cc2c([nH]c(=O)n2Cc2ccc(-c3ccc(CN4CCCC4)cc3)cc2)c(N)n1 [Example 120, 4-amino-6-(2-methoxyethoxy)-1-((4′-(pyrrolidin-1-ylmethyl)-[1,1-biphenyl]-4-yl)methyl)-1H-imidazo[4,5-c]pyridin-2(3H)-one]
[1]; 0.01 μM
  Donors with ≥2-fold HIV-1 Induction: 4 of 4
[1]; 0.156 μM
  Donors with ≥2-fold HIV-1 Induction: 4 of 4
[1]; 2.5 μM
  Donors with ≥2-fold HIV-1 Induction: 4 of 4
[1]; donors 152-155
  fold induction at 0.01 µM: 3.9
[1]; [3]
  fold induction at 0.156 µM: 5.5
[1]; [4]
  fold induction at 2.5 µM: 4

## COCCOc1nc(N)c2[nH]c(=O)n(Cc3ccc(-c4ccc(CN5CCCC5)cc4)cc3)c2c1Cl [Example 121, 4-amino-7-chloro-6-(2-methoxyethoxy)-1-((4′-(pyrrolidin-1-ylmethyl)-[1,1-biphenyl]-4-yl)methyl)-1H-imidazo[4,5-c]pyridin-2(3H)-one]
[1]; 0.01 μM
  Donors with ≥2-fold HIV-1 Induction: 2 of 4
[1]; 0.156 μM
  Donors with ≥2-fold HIV-1 Induction: 2 of 4
[1]; 2.5 μM
  Donors with ≥2-fold HIV-1 Induction: 4 of 4
[1]; donors 152-155
  fold induction at 0.01 µM: 1.3
[1]; [3]
  fold induction at 0.156 µM: 1.3
[1]; [4]
  fold induction at 2.5 µM: 2.9

## COCCOc1nc(N)c2nc(O)n(Cc3ccccc3)c2n1 [Example 122, 6-amino-9-benzyl-2-(2-methoxyethoxy)-9H-purin-8-ol, reference compound]
[1]; 0.01 μM
  Donors with ≥2-fold HIV-1 Induction: 3 of 4
[1]; 0.156 μM
  Donors with ≥2-fold HIV-1 Induction: 3 of 4
[1]; 2.5 μM
  Donors with ≥2-fold HIV-1 Induction: 4 of 4
[1]; donors 152-155
  fold induction at 0.01 µM: 5
[1]; [3]
  fold induction at 0.156 µM: 4.8
[1]; [4]
  fold induction at 2.5 µM: 6.9

## CCc1nc2c(N)nc3ccccc3c2n1CCCCNS(C)(=O)=O [Example 123, N-(4-(4-amino-2-ethyl-1H-imidazo[4,5-c]quinolin-1-yl)butyl)methane sulfonamide, reference compound]
[1]; 0.01 μM
  Donors with ≥2-fold HIV-1 Induction: 2 of 4
[1]; 0.156 μM
  Donors with ≥2-fold HIV-1 Induction: 3 of 4
[1]; 2.5 μM
  Donors with ≥2-fold HIV-1 Induction: 4 of 4
[1]; 96 h, read-out: Fold HIV-1 Induction, 2.5 μM, per donor, supernatants Day 4, PBMCs added to pre-plated compounds
  fold induction at 2.5 µM: 3.3
[1]; donors 152-155
  fold induction at 0.01 µM: 1.9
[1]; [3]
  fold induction at 0.156 µM: 3.4
[1]; [4]
  fold induction at 2.5 µM: 5.1

## Nc1nc(=O)c2sc(=O)n([C@@H]3O[C@H](CO)C[C@H]3O)c2[nH]1 [Example 124, 5-amino-3-((2R,3R,5S)-3-hydroxy-5-(hydroxymethyl)tetrahydrofuran-2-yl)thiazolo[4,5-d]pyrimidine-2,7(3H,4H)-dione, reference compound]
[1]; 0.01 μM
  Donors with ≥2-fold HIV-1 Induction: 3 of 4
[1]; 0.156 μM
  Donors with ≥2-fold HIV-1 Induction: 2 of 4
[1]; 2.5 μM
  Donors with ≥2-fold HIV-1 Induction: 2 of 4
[1]; donors 152-155
  fold induction at 0.01 µM: 3.7
[1]; [3]
  fold induction at 0.156 µM: 1.8
[1]; [4]
  fold induction at 2.5 µM: 1.6

## NS(=O)(=O)NCCNc1nonc1C(=NO)Nc1ccc(F)c(Br)c1 [INCB024360, reference compound]
[2]
  further increase of mean level of polyfunctional proliferating CD8 T cells (TLR7 only vs. TLR7+IDO1): 70%

## CC(C)Cn1cnc2c(N)nc3ccccc3c21 [imiquimod, reference compound]
[1]; 0.01 μM
  Donors with ≥2-fold HIV-1 Induction: 4 of 4
[1]; 0.156 μM
  Donors with ≥2-fold HIV-1 Induction: 4 of 4
[1]; 2.5 μM
  Donors with ≥2-fold HIV-1 Induction: 3 of 4
[1]; 96 h, read-out: Fold HIV-1 Induction, 0.156 μM, per donor, supernatants Day 4, PBMCs added to pre-plated compounds
  fold induction at 0.156 µM: 4.4
[1]; donors 152-155
  fold induction at 0.01 µM: 4.3
[1]; [3]
  fold induction at 0.156 µM: 5.4
[1]; [4]
  fold induction at 2.5 µM: 4.8

## CCOCc1nc2c(N)nc3ccccc3c2n1CC(C)(C)O [resiquimod, reference compound]
[1]; donors 152-155
  fold induction at 0.01 µM: 5
[1]; [3]
  fold induction at 0.156 µM: 6.9
[1]; [4]
  fold induction at 2.5 µM: 7.4
